From patent US12534450B2, “Methods and compositions for targeting PD-L1” (Aligos Therapeutics, Inc., priority 2021, dated 2026)

Legend:
[1] = target: PD-1/PD-L1 PPI (Homo sapiens, UniProt Q9NZQ7); test: PDL1/PD1 Binding Assay; details: PDL1-6×His 0.3 nM, PD1-Fc-Avi-Biotin 2.5 nM, Acceptor/Donor beads, Envision reader
Experimental: Compounds to be tested were serially diluted in DMSO, and further diluted in assay buffer (25 mM Hepes pH 7.4, 150 mM NaCl, 0.005% Tween 20, BSA 0.01%). Diluted compounds were added to the wells with final concentration of DMSO at 1%. PDL1-6×His protein was added to the wells, mixed well with compound. The plates were incubated for 30 min at room temperature. PD1-Fc-Avi-Biotin protein was added to the wells. Final concentration of PDL1 and PD1 protein is 0.3 nM and 2.5 nM, respectively. After a binding time of 30 min at room temperature, Anti-6×His Acceptor beads (final concentration 20 ug/ml) were added to the wells, and the incubation continued for 1 h. Streptavidin Donor beads (final concentration 20 ug/mL) were added at reduced light. The plates were sealed with foil and incubated in the dark for additional 1 h or overnight before reading on an Envision reader. The IC50 values were determined by fitting the curves using a four-parameter equation in Graphpad Prism 8.

[2] = test system: PD-1/PD-L1 interaction; test: PD-1/PD-L1 NFAT Reporter Assay (co-culture of Jurkat T cells overexpressing PD-1 and PD-L1 expressing CHO cells); assay type: cell-based; details: co-culture 6 hrs at 37° C., NFAT-mediated luciferase activity
Experimental: Blocking the PD-1/PD-L1 interaction will release the inhibitory signal and results in TCR signaling and NFAT-mediated luciferase activity.
CHO cells expressing surface-bound anti-CD3 antibodies and PD-L1 were first seeded overnight and treated with the compounds. Jurkat cells overexpressing PD-1 and a luciferase construct under NFAT promoter were then immediately seeded on the monolayer of CHO cells. The co-culture was then incubated for 6 hrs at 37° C. Luciferase activity was assessed by adding the ONE-Glo reagent and measuring luminescence with a plate reader. EC50 values were determined from the fit of the dose-response curves.

Sequence of PD-1/PD-L1 PPI (Q9NZQ7 19-238 limits assumed): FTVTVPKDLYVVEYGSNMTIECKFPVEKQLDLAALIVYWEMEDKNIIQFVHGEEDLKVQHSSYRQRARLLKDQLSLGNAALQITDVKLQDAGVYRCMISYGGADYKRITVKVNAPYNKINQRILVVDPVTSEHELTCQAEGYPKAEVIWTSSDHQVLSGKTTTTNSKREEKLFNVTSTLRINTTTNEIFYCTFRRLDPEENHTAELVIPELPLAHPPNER

Row | Compound | IC50 [1] | EC50 ([2]; Homo sapiens, Jurkat, 6 h) | EC50 [2]
1 | COc1nc(-c2cccc(-c3cccc(NC(=O)c4nn(C)c(=O)n(C)c4=O)c3C)c2Cl)cc2c1[C@H](N[C@@H]1COC[C@H]1O)CC2 (single isomer, unassigned) [Compound A-102] | ≤ 0.01 µM | ≤ 0.01 µM | –
2 | COc1nc(-c2cccc(-c3cccc(NC(=O)c4nn(C)c(=O)n(C)c4=O)c3C)c2C)cc2c1[C@@H](N[C@@H]1COC[C@H]1O)CC2 (single isomer, unassigned) [Compound A-103] | 0.01 to 0.1 µM | > 5 µM | –
3 | COc1nc(-c2cccc(-c3cccc(NC(=O)c4nn(C)c(=O)n(C)c4=O)c3C)c2C)cc2c1[C@H](N[C@@H]1COC[C@H]1O)CC2 (single isomer, unassigned) [Compound A-104] | ≤ 0.01 µM | 0.01 to 0.1 µM | –
4 | COc1nc(-c2cccc(-c3cccc(NC(=O)c4cn(C)c(=O)n(C)c4=O)c3C)c2C)cc2c1[C@@H](N[C@@H]1COC[C@@H]1O)CC2 (single isomer, unassigned) [Compound A-105] | 0.01 to 0.1 µM | 0.01 to 0.1 µM | –
5 | COc1nc(-c2cccc(-c3cccc(NC(=O)c4cn(C)c(=O)n(C)c4=O)c3C)c2C)cc2c1[C@H](N[C@@H]1COC[C@@H]1O)CC2 (single isomer, unassigned) [Compound A-106] | ≤ 0.01 µM | 0.1 to 1 µM | –
6 | COc1nc(-c2cccc(-c3cccc(NC(=O)c4nn(C)c(=O)n(C)c4=O)c3Cl)c2Cl)cc2c1[C@@H](N[C@@H]1COC[C@@H]1O)CC2 (single isomer, unassigned) [Compound A-107] | ≤ 0.01 µM | ≤ 0.01 µM | –
7 | COc1nc(-c2cccc(-c3cccc(NC(=O)c4nn(C)c(=O)n(C)c4=O)c3Cl)c2Cl)cc2c1[C@H](N[C@@H]1COC[C@@H]1O)CC2 (single isomer, unassigned) [Compound A-108] | ≤ 0.01 µM | 0.1 to 1 µM | –
8 | COc1nc(-c2cccc(-c3cccc(NC(=O)c4nn(C)c(=O)n(C)c4=O)c3C)c2Cl)cc2c1[C@@H](N[C@@H]1COC[C@@H]1O)CC2 (single isomer, unassigned) [Compound A-109] | ≤ 0.01 µM | ≤ 0.01 µM | –
9 | COc1nc(-c2cccc(-c3cccc(NC(=O)c4nn(C)c(=O)n(C)c4=O)c3C)c2Cl)cc2c1[C@H](N[C@@H]1COC[C@@H]1O)CC2 (single isomer, unassigned) [Compound A-110] | ≤ 0.01 µM | 0.1 to 1 µM | –
10 | COc1nc(-c2cccc(-c3cccc(NC(=O)c4nn(C)c(=O)n(C)c4=O)c3C)c2C)cc2c1[C@@H](N[C@@H]1COC[C@@H]1O)CC2 (single isomer, unassigned) [Compound A-111] | ≤ 0.01 µM | 0.01 to 0.1 µM | –
11 | COc1nc(-c2cccc(-c3cccc(NC(=O)c4nn(C)c(=O)n(C)c4=O)c3C)c2C)cc2c1[C@H](N[C@@H]1COC[C@@H]1O)CC2 (single isomer, unassigned) [Compound A-112] | ≤ 0.01 µM | 1 to 10 µM | –
12 | COc1nc(-c2cccc(-c3cccc(NC(=O)c4cn(C)c(=O)n(C)c4=O)c3C)c2Cl)cc2c1[C@@H](NC[C@H]1CCC(=O)N1)CC2 (single isomer, unassigned) [Compound A-113] | 0.01 to 0.1 µM | 1 to 10 µM | –
13 | COc1nc(-c2cccc(-c3cccc(NC(=O)c4cn(C)c(=O)n(C)c4=O)c3C)c2Cl)cc2c1[C@H](NC[C@H]1CCC(=O)N1)CC2 (single isomer, unassigned) [Compound A-114] | ≤ 0.01 µM | ≤ 0.01 µM | –
14 | COCCOc1nc(-c2cccc(-c3cccc(NC(=O)c4cn(C)c(=O)n(C)c4=O)c3C)c2Cl)cc2c1[C@@H](NC[C@@H]1CCC(=O)N1)CC2 (single isomer, unassigned) [Compound A-115] | ≤ 0.01 µM | 0.01 to 0.1 µM | –
15 | COCCOc1nc(-c2cccc(-c3cccc(NC(=O)c4cn(C)c(=O)n(C)c4=O)c3C)c2Cl)cc2c1[C@H](NC[C@@H]1CCC(=O)N1)CC2 (single isomer, unassigned) [Compound A-116] | ≤ 0.01 µM | 1 to 10 µM | –
16 | COc1nc(-c2cccc(-c3cccc(NC(=O)c4cn(C)c(=O)n(C)c4=O)c3C)c2Cl)cc2c1C(NC[C@@H]1CCC(=O)N1)C(O)C2 (single isomer, unassigned) [Compound A-125] | ≤ 0.01 µM | – | > 5 µM
17 | COc1nc(-c2cccc(-c3cccc(NC(=O)c4cn(C)c(=O)n(C)c4=O)c3C)c2Cl)cc2c1C(NC[C@@H]1CCC(=O)N1)C(O)C2 (single isomer, unassigned) [Compound A-126] | ≤ 0.01 µM | – | 0.01 to 0.1 µM
